This note sets out measurements from ChEMBL document CHEMBL1135107, “Synthesis and evaluation of new antimalarial analogues of quinoline alkaloids derived from Cinchona ledgeriana Moens ex Trimen” (Bioorg Med Chem Lett, 2002).

Assay [1] has as its system Plasmodium falciparum. The assay can be described thus: In vitro antimalarial activity against Plasmodium falciparum W2 in human erythrocytes by [3H]hypoxanthine uptake. The class given is functional, organism-based.
Assay [2] has as its system Plasmodium falciparum. Briefly: In vitro inhibition of parasite development of Plasmodium falciparum W2 in human erythrocytes. The class given is functional, organism-based.

Regarding `C=CCO[C@H](c1ccnc2ccccc12)[C@@H]1C[C@@H]2CC[N@@+]1(Cc1cc(C(C)(C)C)c(OC)c(C(C)(C)C)c1)C[C@@H]2C=C`, the IC50 – broadly, the concentration that gives 50% inhibition – in the assay on Plasmodium falciparum [1] (Plasmodium falciparum) was determined as 1100 nM; in the assay with Plasmodium falciparum [2] (Plasmodium falciparum) it was 580 nM.
The like results for `C=C[C@H]1CN2CC[C@H]1C[C@H]2[C@H](O)c1ccnc2ccccc12` [CINCHONIDINE] were, in that order, 380 nM and 290 nM.
As for `C=C[C@H]1C[N@+]2(Cc3cc(C(C)(C)C)c(OC)c(C(C)(C)C)c3)CC[C@H]1C[C@H]2[C@H](O)c1ccnc2ccc(OC)cc12`, the figures for the IC50 in the assay on Plasmodium falciparum [1] (Plasmodium falciparum) and in the assay on Plasmodium falciparum [2] (Plasmodium falciparum) were 380 nM and 99 nM, respectively.
In the same order, the values of `C=CCO[C@@H](c1ccnc2ccc(OC)cc12)[C@H]1C[C@@H]2CC[N@@+]1(Cc1cc(C(C)(C)C)c(OC)c(C(C)(C)C)c1)C[C@@H]2C=C` are 1200 nM and 230 nM.
In the same order, the values of `C=C[C@H]1C[N@+]2(Cc3cc(C(C)(C)C)c(OC)c(C(C)(C)C)c3)CC[C@H]1C[C@@H]2[C@@H](OCc1ccccc1)c1ccnc2ccccc12` are 1100 nM and 120 nM.
Take `C=C[C@H]1C[N@+]2(Cc3cc(C(C)(C)C)c(OC)c(C(C)(C)C)c3)CC[C@H]1C[C@H]2[C@H](O)c1ccnc2ccccc12`: the half-maximal inhibitory concentration (IC50) in the assay with Plasmodium falciparum [1] (Plasmodium falciparum) turned out to be 510 nM; with Plasmodium falciparum [2] (Plasmodium falciparum) it was 160 nM.
Take `C=C[C@H]1C[N@+]2(Cc3cc(C(C)(C)C)c(OC)c(C(C)(C)C)c3)CC[C@H]1C[C@@H]2[C@@H](O)c1ccnc2ccccc12` (stereo in doubt; form 1): the IC50 in the assay with Plasmodium falciparum [1] turned out to be 800 nM; in the assay with Plasmodium falciparum [2] it was 530 nM.
Take `C=C[C@H]1C[N@+]2(Cc3cc(C(C)(C)C)c(OC)c(C(C)(C)C)c3)CC[C@H]1C[C@@H]2[C@@H](OCc1ccccc1)c1ccnc2ccc(OC)cc12`: the IC50 is 410 nM in the assay with Plasmodium falciparum [1] (Plasmodium falciparum) and 100 nM with Plasmodium falciparum [2] (Plasmodium falciparum).
On to `C=C[C@H]1C[N@+]2(Cc3cc(C(C)(C)C)c(OC)c(C(C)(C)C)c3)CC[C@H]1C[C@@H]2[C@@H](O)c1ccnc2ccc(OC)cc12`, for which the figures for the IC50 in the assay on Plasmodium falciparum [1] (Plasmodium falciparum) and in the assay on Plasmodium falciparum [2] (Plasmodium falciparum) were 1000 nM and 510 nM, respectively.
Turning to `C=C[C@H]1C[N@+]2(Cc3cc(C(C)(C)C)c(OC)c(C(C)(C)C)c3)CC[C@H]1C[C@@H]2[C@@H](O)c1ccnc2ccccc12` (stereo in doubt; form 2), the IC50 with Plasmodium falciparum [1] is 360 nM; in the assay with Plasmodium falciparum [2] it was 160 nM.
`C=C[C@H]1C[N@+]2(Cc3cc(C(C)(C)C)c(OC)c(C(C)(C)C)c3)CC[C@H]1C[C@H]2[C@H](OCc1ccccc1)c1ccnc2ccccc12`: the IC50 with Plasmodium falciparum [1] (Plasmodium falciparum) is 520 nM; in the assay with Plasmodium falciparum [2] (Plasmodium falciparum), 63 nM.
The like results for `C=C[C@H]1CN2CC[C@H]1C[C@@H]2[C@@H](O)c1ccnc2ccc(OC)cc12` [QUINIDINE] were, in that order, 160 nM and 4 nM.
The like results for `C=CCO[C@H](c1ccnc2ccc(OC)cc12)[C@@H]1C[C@@H]2CC[N@@+]1(Cc1cc(C(C)(C)C)c(OC)c(C(C)(C)C)c1)C[C@@H]2C=C` were, in that order, 1000 nM and 410 nM.
In the same order, the values of `C=C[C@H]1CN2CC[C@H]1C[C@H]2[C@H](O)c1ccnc2ccc(OC)cc12` [QUININE] are 370 nM and 120 nM.
For the compound `C=C[C@H]1CN2CC[C@H]1C[C@@H]2[C@@H](O)c1ccnc2ccccc12` [CINCHONINE], the concentration for half-maximal inhibition (IC50) with Plasmodium falciparum [1] (Plasmodium falciparum) came to 220 nM; in the assay on Plasmodium falciparum [2] (Plasmodium falciparum) it was 51 nM.
The like results for `C=C[C@H]1C[N@+]2(Cc3cc(C(C)(C)C)c(OC)c(C(C)(C)C)c3)CC[C@H]1C[C@H]2[C@H](OCc1ccccc1)c1ccnc2ccc(OC)cc12` were, in that order, 620 nM and 150 nM.
